Laboratory results: patent US20260285850A1, “SUBSTITUTED OXAZOLIDINONES AND IMIDAZOLINONES AS HERBICIDES” (FMC CORPORATION, priority 2023, published 2026)

Columns and labels:
Assay type in all cases: in vivo
[1] = system: horseweed (Erigeron canadensis); assay: Test A postemergence application, visual injury rating 0-100; conditions: Postemergence, 1000 g ai/ha, 0 to 100 scale, 10 days
Summary of the method: (§1)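 Plants in a loam and sand soil blend were treated with each test chemical, in a non-phytotoxic solvent system including surfactant, either sprayed on seeded soil before emergence or applied after emergence at the one- to two-leaf stage. Ten days later in the greenhouse, plants were compared with untreated controls and visually rated from 0 (no effect) to 100 (complete control).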

kochia (Bassia scoparia) [2] = assay: as above; conditions: Postemergence, 10 days; for Kochia plant response rating (0 to 100 scale): 0 is no effect, 100 is complete control
Summary of the method: as §1

[3] = system: galium (catchweed bedstraw, Galium aparine); assay: as above; conditions: Postemergence, 10 days; for Galium plant response rating (0 to 100 scale): 0 is no effect, 100 is complete control
Summary of the method: as §1

[4] = system: blackgrass (Alopecurus myosuroides); assay: as above; conditions: Postemergence, 10 days; for Blackgrass plant response rating (0 to 100 scale): 0 is no effect, 100 is complete control
Summary of the method: as §1

[5] = system: foxtail, giant (giant foxtail, Setaria faberi); assay: as above; conditions: 10 days; for Foxtail, Giant plant response rating (0 to 100 scale): 0 is no effect, 100 is complete control
Summary of the method: as §1

[6] = system: palmer (palmer amaranth, palmer pigweed, Amaranthus palmeri); assay: as above; conditions: Postemergence, 10 days; for Amaranth, Palmer / Pigweed, Palmer plant response rating (0 to 100 scale): 0 is no effect, 100 is complete control
Summary of the method: as §1

[7] = system: ragweed (common ragweed, Ambrosia artemisiifolia); assay: as above; conditions: Postemergence, 10 days; for Ragweed plant response rating (0 to 100 scale): 0 is no effect, 100 is complete control
Summary of the method: as §1

[8] = system: ryegrass, Italian (italian ryegrass, Lolium multiflorum); assay: as above; conditions: Postemergence, 10 days; for Ryegrass, Italian plant response rating (0 to 100 scale): 0 is no effect, 100 is complete control
Summary of the method: as §1

[9] = system: barnyardgrass (Echinochloa crus-galli); assay: as above; conditions: Postemergence, 10 days; for Barnyardgrass plant response rating (0 to 100 scale): 0 is no effect, 100 is complete control
Summary of the method: as §1

kochia (Bassia scoparia) [10] = assay: Test A preemergence soil spray, visual injury rating 0-100; conditions: 10 days, 0 = no effect, 100 = complete control
Summary of the method: as §1

[11] = system: blackgrass (Alopecurus myosuroides); assay: as above; conditions: 10 days, 0 = no effect, 100 = complete control
Summary of the method: as §1

[12] = system: foxtail, giant (giant foxtail, Setaria faberi); assay: as above; conditions: 10 days, 0 = no effect, 100 = complete control
Summary of the method: as §1

[13] = system: palmer (palmer amaranth, palmer pigweed, Amaranthus palmeri); assay: as above; conditions: 10 days, 0 = no effect, 100 = complete control
Summary of the method: as §1

[14] = system: ragweed (common ragweed, Ambrosia artemisiifolia); assay: as above; conditions: 10 days, 0 = no effect, 100 = complete control
Summary of the method: as §1

[15] = system: ryegrass, Italian (italian ryegrass, Lolium multiflorum); assay: as above; conditions: 10 days, 0 = no effect, 100 = complete control
Summary of the method: as §1

[16] = system: barnyardgrass (Echinochloa crus-galli); assay: as above; conditions: 10 days, 0 = no effect, 100 = complete control
Summary of the method: as §1

[17] = system: sedge, umbrella (small-flower umbrella sedge, Cyperus difformis); assay: Test B flooded paddy test, visual plant response rating 0-100; conditions: 250 g ai/ha, Flood, applied to paddy water, evaluated after 13 days
Summary of the method: (§2)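 2-leaf plants; flood 3 cm over soil; compound dosed into paddy water; depth kept constant; greenhouse 13 d; visual scoring vs controls. Dash = no result.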

rice (Oryza sativa) = assay: as above; conditions: 250 g ai/ha, Flood, applied to paddy water, evaluated after 13 days
Summary of the method: as §2

[18] = system: barnyardgrass (Echinochloa crusgalli); assay: as above; conditions: 250 g ai/ha, Flood, applied to paddy water, evaluated after 13 days
Summary of the method: as §2

[19] = system: ducksalad (Heteranthera limosa); assay: as above; conditions: 250 g ai/ha, Flood, applied to paddy water, evaluated after 13 days
Summary of the method: as §2

soybean (Glycine max) [20] = assay: Test A postemergence application, visual injury rating 0-100; conditions: Postemergence, 10 days, 0 is no effect, 100 is complete control
Summary of the method: as §1

corn (Zea mays) [21] = assay: as above; conditions: Postemergence, 10 days, 0 is no effect, 100 is complete control
Summary of the method: as §1

[22] = system: oat, wild (wild oat, Avena fatua); assay: as above; conditions: Postemergence, 10 days, 0 is no effect, 100 is complete control
Summary of the method: as §1

[23] = system: wheat (Triticum aestivum); assay: as above; conditions: Postemergence, 10 days, 0 is no effect, 100 is complete control
Summary of the method: as §1

soybean (Glycine max) [24] = assay: Test A preemergence soil spray, visual injury rating 0-100; conditions: 10 days, 0 = no effect, 100 = complete control
Summary of the method: as §1

corn (Zea mays) [25] = assay: as above; conditions: 10 days, 0 = no effect, 100 = complete control
Summary of the method: as §1

[26] = system: oat, wild (wild oat, Avena fatua); assay: as above; conditions: 10 days, 0 = no effect, 100 = complete control
Summary of the method: as §1

[27] = system: wheat (Triticum aestivum); assay: as above; conditions: 10 days, 0 = no effect, 100 = complete control
Summary of the method: as §1

CSCCOC(=O)[C@@H]1C=C[C@H](NC(=O)C2(C)CN(c3cc(F)cc(F)c3)C(=O)O2)C1 (stereo partly drawn) [Compound 48, 2-(Methylthio)ethyl (1S,4R)-4-[[[3-(3,5-difluorophenyl)-5-methyl-2-oxo-5-oxazolidinyl]carbonyl]amino]-2-cyclopentene-1-carboxylate]
Horseweed plant response rating [1]: 70 | Kochia plant response rating (kochia (Bassia scoparia) [2]; 1000 g ai/ha, 0 to 100 scale): 70 | Galium plant response rating ([3]; 1000 g ai/ha, 0 to 100 scale): 80 | Blackgrass plant response rating ([4]; 1000 g ai/ha, 0 to 100 scale): 100 | Foxtail, Giant plant response rating ([5]; 1000 g ai/ha, 0 to 100 scale): 90 | Amaranth, Palmer plant response rating ([6]; 1000 g ai/ha, 0 to 100 scale): 90 | Ragweed plant response rating ([7]; 1000 g ai/ha, 0 to 100 scale): 70 | Ryegrass, Italian plant response rating ([8]; 1000 g ai/ha, 0 to 100 scale): 90 | Barnyardgrass plant response rating ([9]; 1000 g ai/ha, 0 to 100 scale): 90 | Kochia plant response rating (0 to 100 scale) (kochia (Bassia scoparia) [10]; 1000 g ai/ha): 100 | Blackgrass plant response rating (0 to 100 scale) ([11]; 1000 g ai/ha): 90 | Foxtail, Giant plant response rating (0 to 100 scale) ([12]; 1000 g ai/ha): 100 | Amaranth, Palmer / Pigweed, Palmer plant response rating (0 to 100 scale) ([13]; 1000 g ai/ha): 100 | Ragweed plant response rating (0 to 100 scale) ([14]; 1000 g ai/ha): 90 | Ryegrass, Italian plant response rating (0 to 100 scale) ([15]; 1000 g ai/ha): 100 | Barnyardgrass plant response rating (0 to 100 scale) ([16]; 1000 g ai/ha): 100 | Plant response rating, Sedge, Umbrella (0 to 100 scale, 0 is no effect and 100 is complete control) [17]: 80 | Plant response rating, Rice (0 to 100 scale, 0 is no effect and 100 is complete control) (rice (Oryza sativa)): 65 | Plant response rating, Barnyardgrass (0 to 100 scale, 0 is no effect and 100 is complete control) [18]: 70 | Plant response rating, Ducksalad (0 to 100 scale, 0 is no effect and 100 is complete control) [19]: 70

CC1(C(=O)NC2C=CC(C(=O)OCCS(C)(=O)=O)C2)CN(c2cc(F)cc(F)c2)C(=O)O1 (stereo not shown) [Compound 49]
Soybean plant response rating (0 to 100 scale) (soybean (Glycine max) [20]; 125 g ai/ha): 90 | Soybean plant response rating (0 to 100 scale) (soybean (Glycine max) [20]; 500 g ai/ha): 90 | Kochia plant response rating (0 to 100 scale) (kochia (Bassia scoparia) [2]; 125 g ai/ha): 70 | Kochia plant response rating (0 to 100 scale) (kochia (Bassia scoparia) [2]; 500 g ai/ha): 80 | Galium plant response rating (0 to 100 scale) ([3]; 125 g ai/ha): 70 | Galium plant response rating (0 to 100 scale) ([3]; 500 g ai/ha): 80 | Blackgrass plant response rating (0 to 100 scale) ([4]; 125 g ai/ha): 90 | Blackgrass plant response rating (0 to 100 scale) ([4]; 500 g ai/ha): 100 | Foxtail, Giant plant response rating (0 to 100 scale) ([5]; 125 g ai/ha): 90 | Foxtail, Giant plant response rating (0 to 100 scale) ([5]; 500 g ai/ha): 90 | Corn plant response rating (0 to 100 scale) (corn (Zea mays) [21]; 125 g ai/ha): 100 | Corn plant response rating (0 to 100 scale) (corn (Zea mays) [21]; 500 g ai/ha): 100 | Amaranth, Palmer / Pigweed, Palmer plant response rating (0 to 100 scale) ([6]; 125 g ai/ha): 90 | Amaranth, Palmer / Pigweed, Palmer plant response rating (0 to 100 scale) ([6]; 500 g ai/ha): 100 | Ragweed plant response rating (0 to 100 scale) ([7]; 125 g ai/ha): 70 | Ragweed plant response rating (0 to 100 scale) ([7]; 500 g ai/ha): 70 | Oat, Wild plant response rating (0 to 100 scale) ([22]; 125 g ai/ha): 90 | Oat, Wild plant response rating (0 to 100 scale) ([22]; 500 g ai/ha): 90 | Ryegrass, Italian plant response rating (0 to 100 scale) ([8]; 125 g ai/ha): 80 | Ryegrass, Italian plant response rating (0 to 100 scale) ([8]; 500 g ai/ha): 90 | Wheat plant response rating (0 to 100 scale) ([23]; 125 g ai/ha): 90 | Wheat plant response rating (0 to 100 scale) ([23]; 500 g ai/ha): 90 | Barnyardgrass plant response rating (0 to 100 scale) ([9]; 125 g ai/ha): 100 | Barnyardgrass plant response rating (0 to 100 scale) ([9]; 500 g ai/ha): 100 | Soybean plant response rating (0 to 100 scale) (soybean (Glycine max) [24]; 125 g ai/ha): 80 | Soybean plant response rating (0 to 100 scale) (soybean (Glycine max) [24]; 500 g ai/ha): 90 | Kochia plant response rating (0 to 100 scale) (kochia (Bassia scoparia) [10]; 125 g ai/ha): 90 | Kochia plant response rating (0 to 100 scale) (kochia (Bassia scoparia) [10]; 500 g ai/ha): 100 | Blackgrass plant response rating (0 to 100 scale) ([11]; 125 g ai/ha): 70 | Blackgrass plant response rating (0 to 100 scale) ([11]; 500 g ai/ha): 80 | Foxtail, Giant plant response rating (0 to 100 scale) ([12]; 125 g ai/ha): 90 | Foxtail, Giant plant response rating (0 to 100 scale) ([12]; 500 g ai/ha): 100 | Corn plant response rating (0 to 100 scale) (corn (Zea mays) [25]; 125 g ai/ha): 80 | Corn plant response rating (0 to 100 scale) (corn (Zea mays) [25]; 500 g ai/ha): 90 | Amaranth, Palmer plant response rating (0 to 100 scale) ([13]; 125 g ai/ha): 90 | Amaranth, Palmer plant response rating (0 to 100 scale) ([13]; 500 g ai/ha): 100 | Ragweed plant response rating (0 to 100 scale) ([14]; 125 g ai/ha): 40 | Ragweed plant response rating (0 to 100 scale) ([14]; 500 g ai/ha): 90 | Oat, Wild plant response rating (0 to 100 scale) ([26]; 125 g ai/ha): 80 | Oat, Wild plant response rating (0 to 100 scale) ([26]; 500 g ai/ha): 90 | Ryegrass, Italian plant response rating (0 to 100 scale) ([15]; 125 g ai/ha): 80 | Ryegrass, Italian plant response rating (0 to 100 scale) ([15]; 500 g ai/ha): 100 | Wheat plant response rating (0 to 100 scale) ([27]; 125 g ai/ha): 90 | Wheat plant response rating (0 to 100 scale) ([27]; 500 g ai/ha): 100 | Barnyardgrass plant response rating (0 to 100 scale) ([16]; 125 g ai/ha): 90 | Barnyardgrass plant response rating (0 to 100 scale) ([16]; 500 g ai/ha): 100 | Plant response rating, Sedge, Umbrella (0 to 100 scale, 0 is no effect and 100 is complete control) [17]: 95 | Plant response rating, Rice (0 to 100 scale, 0 is no effect and 100 is complete control) (rice (Oryza sativa)): 55 | Plant response rating, Barnyardgrass (0 to 100 scale, 0 is no effect and 100 is complete control) [18]: 80 | Plant response rating, Ducksalad (0 to 100 scale, 0 is no effect and 100 is complete control) [19]: 90
